Source: patent publication US20090061022A1, “Pharmaceutical composition comprising arsenite for the treatment of malignancy” (priority 2004, published 2009)
pIC50: −log10 of the molar value. Values joined by “and” are separate entries in the source; they are usually repeats but may differ in a detail not shown here. Equal entries are not always repeated.

What was measured:
[1] = system: panel of 9 human cancer cell lines; assay: Cytotoxic activity, whole panel of 9 human cancer cell lines (means, active/total); assay type: cell-based
Experimental: Three kinds of stock solutions were prepared for in vitro cytotoxic activity test. The first solution is DMSO (dimethyl sulfoxide) mixed with sodium meta-arsenite. […] The third solution is DMSO mixed with arsenic acid sodium salt. Those three solutions were diluted with culture medium (RPMI 1640). The final concentrations of DMSO in those three solutions are less than 0.3 vol %.
(§1) Nine kinds of human cancer cell lines out of six kinds of cancers were grown at 37° C. under a controlled atmosphere of 95% air and 5% CO2. The cells were grown on monolayer cultures of RPMI 1640 cell culture medium supplemented with 10% fetal calf serum.
(§2) The grown cells were harvested from exponential phase cultures by trypsinization and counted. The counted cells were placed in a plate, which has ninety six wells. Each well on the plate is in a shape of a flat-bottomed microtitre. Density of the cells in a suspension was adjusted depending on the cell line. The suspension was prepared by diluting the grown cells with the culture medium (RPMI 1640). […] Then add 50 μl of culture medium (RPMI 1640) only to 6 wells, 50 μl/well, among the 96 wells of one plate. It is called controlled. One well is filled with culture medium plus 5-FU. And another 50 μl of culture medium plus one of the stock solutions were added to each of the left 89 wells to allow cells to resume exponential growth.
The cytotoxic activity test was executed with three plates simultaneously to check reliability of the data obtained. The three plates contain the same samples of cancer cells. The three plates were then incubated for 3-7 days under the same controlled atmosphere and cell proliferation was assessed with a modified propodium iodide fluorescence assay. After thawing of the plates, fluorescence was measured using a Millipore Cytofluor 2350-microplate reader (excitation 530 nm emission 620 nm) in order to quantify the total cell number. The assay included untreated and positive controls containing 5-FU.
Growth inhibition is defined as (numbers of cancer cell alive) treated (T)/(number of cells) control (C)×100% (T/C %).

RXF 944LX [2] = assay: Dose finding study in human renal cancer model RXF 944LX in nude mice (i.p. days 0, 7, 14); settings: for Maximum Tolerated Dose (MTD): i.p. once daily on days 0, 7 and 14, RXF 944LX bearing nude mice
Source text: In a dose finding study, the potential anticancer activity of sodium meta-arsenite and arsenic acid sodium salt versus arsenic trioxide was examined in the human renal cancer model, RXF 944LX.
(§3) Cancer fragments (1-2 mm in diameter), obtained from xenografts in serial passage in nude mice, were implanted subcutaneously (S.C.) in a flank of male NRMI nude mice (one fragment per mouse). Mice with appropriate cancer volumes (5-7 mm in diameter) were randomly distributed to treatment and control groups (4 mice/group). The start of treatment was day 0. Cancer volume and body weights were measured at least twice per week.
1) Sodium meta-arsenite (3, 10, 30 mg/kg/day), 2) Arsenic acid sodium salt (3, 10, 30 mg/kg/day) and 3) Arsenic trioxide (3, 10, 30 mg/kg/day) were administered intraperitoneally (i.p.) once daily on days 0, 7 and 14.
Stock solution of sodium meta-arsenite and arsenic acid sodium salt (3 mg/ml) were prepared in 5% (w/v) dextrose solution, respectively, to minimize acute arsenic toxicity. For arsenic trioxide, 9 mg of arsenic trioxide was dissolved in 1M NaOH (75 μl) followed by mixing with sterile aqua injectabilia (2175 μl) and sterile 20% (w/v) dextrose in water (500 μl). Further dilution to the desired concentration was done with a 5% dextrose solution to give a final concentration of 3 mg/ml.
(§4) The cancer volume of each animal was determined by two-dimensional measurement using calipers. The volume was calculated according to the formula: (a×b^2)×0.5; wherein a and b represent two perpendicular diameters in which a (length) is the larger diameter and b (width) the smaller diameter.
(§5) Relative cancer volumes (RCV) were calculated for each individual cancer by dividing the cancer volume on day X by the cancer volume on day 0 multiplied by 100%. The cancer volume of a treatment group was expressed as the median RCV of all mice of the group. Median RCV values were used for drawing growth curves and treatment evaluation. Optimal cancer growth inhibition at a particular day within the treatment period was calculated from the median RCV values of the treated (T) versus the controlled (C) group multiplied by 100%. A T/C value<50% was considered as anti-cancer activity.

RXF 944LX [3] = assay: Anticancer activity in RXF 944LX cancer bearing nude mice, intermittent and daily schedules; settings: for MTD: i.p., RXF 944LX
Experimental: as §3, §4, §5
In the experiment with renal cancer RXF 944LX, the anticancer activity of the compounds was explored using two administration schedules; 1) intermittent schedule of 4 days×3, and 2) a daily schedule for 2 weeks (days 0-4, 7-11).
The dose levels chosen for sodium meta-arsenite and arsenic acid sodium salt in these schedules were based on the experience in the 1st experiment. Additional small dose finding studies were executed.

[4] = system: panel of 12 human cancer cell lines; assay: Cytotoxic activity, whole panel of 12 human cancer cell lines, modified propidium iodide assay; settings: panel of 12 human cancer cell lines, 4 days
Experimental: as §1
as §2, with “1640). Concentration of the cells were varied from 5×10^4 to 1×10^5 viable cells/ml. 100 μl of the suspension was placed in each well of the plate.” for “1640).”
(§6) In a further study, the cytotoxic activity profile of sodium meta-arsenite and arsenic acid sodium salt was investigated in different panels containing twelve (12) human cancer cell lines from eight (8) kinds of human cancers. The cancer cell samples were prepared as described in 1-1-B. Propidium iodide fluorescence assay method for this test was modified as the follows.

LXFA 629L = LXFA 629L non-small cell lung; resistant
Experimental: as §1
as §2, with “1640). Concentration of the cells were varied from 5×10^4 to 1×10^5 viable cells/ml. 100 μl of the suspension was placed in each well of the plate.” for “1640).”
as §6

GXF 251L (gastric) = settings: resistant
Experimental: as §1
as §2, with “1640). Concentration of the cells were varied from 5×10^4 to 1×10^5 viable cells/ml. 100 μl of the suspension was placed in each well of the plate.” for “1640).”
as §6

RXF393NL (renal) = settings: resistant
Experimental: as §1
as §2, with “1640). Concentration of the cells were varied from 5×10^4 to 1×10^5 viable cells/ml. 100 μl of the suspension was placed in each well of the plate.” for “1640).”
as §6

LXFE 66NL = LXFE 66NL non-small cell lung; resistant
Experimental: as §1
as §2, with “1640). Concentration of the cells were varied from 5×10^4 to 1×10^5 viable cells/ml. 100 μl of the suspension was placed in each well of the plate.” for “1640).”
as §6

[5] = rats, orally; cited from earlier work
ALL-SCID 4 = assay: Anticancer activity in human leukemia model ALL-SCID 4; settings: for BW loss % (day) / Drug-related deaths / T/C %: days 25-35
Source text: Anticancer activity of the sodium meta-arsenite and arsenic trioxide against two human paediatric acute lymphoblastic leukemia (ALL) models in vivo, ALL-SCID 4 was investigated to compare.
Male NOD/SCID mice (deficient in T and B lymphocytes, NK cells and functional macrophages) were transplanted s.c. on day 0 with fragments of ALL-SCID 4 cancers, which were obtained from mice used for routine passage of the cancers. Mice were randomized to the scheduled treatment groups.
Sodium meta-arsenite was administered orally at 2, 4 and 6 mg/kg/day (⅓ MTD, ⅔ MTD and MTD) once every day from day 34-54 after transplantation. The vehicle control (5% glucose in water) was administered i.p. (10 ml/kg).
Sodium meta-arsenite was dissolved in ready-to-use sterile infusion (5% (w/v) glucose in aqua injectabila). Arsenic trioxide was dissolved in 25 mM NaOH then dissolved in 5% glucose in aqua injectabila. The solutions were prepared freshly on the day of therapy for each administration.

[6] = system: panel of forty-one (41) human cancer cell lines; assay: Cytotoxic activity, panel of forty-one (41) human cancer cell lines
Source text: In a next study, the cytotoxic activity of sodium meta-arsenite was head-to-head compared with arsenic trioxide in panels loaded with 41 cancer cell lines from ten human cancers.

[7] = cold water; cited from earlier work
[8] = mean over human cancer cell lines tested (9 line panel)
[9] = 32 mg/kg i.p., days 0-4, 7, 14-18
[10] = 10 mg/kg i.p., days 0, 7, 14, listed as arsenic trioxide
[11] = panel of 41 human cancer cell lines

## arsenic acid sodium salt
[1]; 9 cell line panel
  Assessment from comparison of the IC50 values: inactive
[1]; [8]
  pIC50: 4.00
  IC90: 248 µM
  Mean IC50: 30.8 µg/mL
  Mean IC90: 77.5 µg/mL
[1]; mean over human cancer cell lines tested (9 line panel), sodium salt
  Mean IC70: 44.7 μg/ml and 143 μM
RXF 944LX [2]; 3 mg/kg i.p., days 0, 7, 14
  BW loss % (day): +15 (21) %
  Drug-related deaths: 0/4
  Rating: − (−T/C ≧ 50%)
  SGD (specific growth delay): −0.5
  T/C %: 90%
RXF 944LX [2]; 10 mg/kg i.p., days 0, 7, 14
  BW loss % (day): +10 (21) %
  Drug-related deaths: 0/4
  Rating: − (−T/C ≧ 50%)
  SGD (specific growth delay): −0.2
  T/C %: 74%
RXF 944LX [2]; 30 mg/kg i.p., days 0, 7, 14
  BW loss % (day): +14 (21) %
  Drug-related deaths: 0/4
  Rating: − (−T/C ≧ 50%)
  SGD (specific growth delay): 0.1
  T/C %: 88%
RXF 944LX [2]; 3, 10, 30 mg/kg/day i.p., days 0, 7, 14
  T/C values of the 3 treatment groups: greater than 74%
RXF 944LX [2]
  Maximum Tolerated Dose (MTD): greater than 30 mg/kg/day
RXF 944LX [3]; 16 mg/kg i.p., days 0-4, 7-11
  BW loss % (day): −8 (14) %
  Drug-related deaths: 2/6
  SGD (specific growth delay): 0
  T/C %: 76%
RXF 944LX [3]; 30 mg/kg i.p., days 0, 4, 8
  BW loss % (day): +25 (14) %
  Drug-related deaths: 1/6
  SGD (specific growth delay): −0.2
  T/C %: 100%
RXF 944LX [3]; [9]
  BW loss % (day): −10 (14) %
  Drug-related deaths: 3/6
RXF 944LX [3]; 45 mg/kg i.p., days 0, 4, 8
  BW loss % (day): +22 (14) %
  Drug-related deaths: 2/6
  SGD (specific growth delay): −0.3
  T/C %: 100%
RXF 944LX [3]; daily schedule (days 0-4, 7-11)
  MTD: 16 mg/kg/day
RXF 944LX [3]; intermittent schedule (4 days×3)
  MTD: 45 mg/kg/day
[4]
  Mean IC50: 25.5 µg/mL
  Mean IC90: 76.6 µg/mL
[4]; sodium salt
  Mean IC70: 40.1 μg/ml and 129 μM
[4]; read-out: Mean IC50
  pIC50: 4.09
[4]; read-out: Mean IC90
  IC90: 246 µM
LXFA 629L
  IC70: > 100 µg/mL
GXF 251L (gastric)
  IC70: > 100 µg/mL
RXF393NL (renal)
  IC70: > 100 µg/mL
LXFE 66NL
  IC70: > 100 µg/mL

## arsenic trioxide
RXF 944LX [2]; 3 mg/kg i.p., days 0, 7, 14
  BW loss % (day): +8.4 (14) %
  Drug-related deaths: 0/4
  Rating: + (+T/C < 50)
  SGD (specific growth delay): −0.1
  T/C %: 31%
RXF 944LX [2]; 10 mg/kg i.p., days 0, 7, 14
  BW loss % (day): −5.0 (11) %
  Drug-related deaths: 1/4
  Rating: + (+T/C < 50)
  SGD (specific growth delay): −0.2
  T/C %: 41%
RXF 944LX [2]; [10]
  BW loss % (day): 5%
  Drug-related deaths: one (1) out of four (4) mice died
RXF 944LX [2]; 30 mg/kg i.p., days 0, 7, 14
  Drug-related deaths: 4/4
RXF 944LX [2]; 30 mg/kg i.p., days 0, 7, 14, listed as arsenic trioxide
  Drug-related deaths: died within a few days after the first injection
RXF 944LX [2]
  Maximum Tolerated Dose (MTD): 10 mg/kg/day
[5]
  LD50: 15.1 mg/kg
ALL-SCID 4; 2 mg/kg i.p.
  BW loss % (day): +9 (34) %
  Drug-related deaths: 0/8
  T/C %: 71%
ALL-SCID 4; 4 mg/kg i.p.
  BW loss % (day): +10 (34) %
  Drug-related deaths: 0/8
  T/C %: 97%
ALL-SCID 4; 6 mg/kg i.p.
  BW loss % (day): +10 (34) %
  Drug-related deaths: 0/8
  T/C %: 58%
ALL-SCID 4; small dose finding studies prior to the ALL-SCID 4 study
  MTD: 6 mg/kg/day
[6]; 0.1 μg/ml, 0.01 μg/ml and 0.001 μg/ml
  activity in panel of 41: no observed activity
[6]; 1 μg/ml, more than 70% growth inhibition
  cancer cell lines that responded, percent of 41: 2%
[6]; 10 μg/ml
  cancer cell lines in which active, percent of 41: 56%
[6]; breast (mammary) cancer cell lines
  selectivity (individual IC70<½ mean IC70), fraction of cell lines: ¼
[6]; leukemia cell lines
  selectivity (individual IC70<½ mean IC70), fraction of cell lines: ¾
[6]; melanoma cell lines
  selectivity (individual IC70<½ mean IC70), fraction of cell lines: 2/7
[6]; on the basis of μM
  fold less potent compared to sodium meta-arsenite, IC50: 17 fold
  fold less potent compared to sodium meta-arsenite, IC70: 12 fold
[6]; on μg/ml
  fold less potent compared to sodium meta-arsenite, IC50: 27 fold
  fold less potent compared to sodium meta-arsenite, IC70: 18 fold
[6]; [11]
  Mean IC50: 3.462 µg/mL
  Mean IC70: 6.022 μg/ml and 30.44 μM
  Mean IC90: 10.307 µg/mL
[6]; panel of 41 human cancer cell lines, listed as arsenic trioxide
  Mean IC70: 6.022 μg/ml and 30.44 μM
[6]; read-out: Mean IC50, panel of 41 human cancer cell lines
  pIC50: 4.76
[6]; read-out: Mean IC90, panel of 41 human cancer cell lines
  IC90: 52.1 µM
[7]
  Solubility: sparingly and extremely slowly soluble
